The results in this text go back to US9056874B2, “Complement pathway modulators and uses thereof” (NOVARTIS AG, priority 2012, dated 2015).

As usually defined, the IC50 is the concentration at which inhibition is half-maximal.

Structures are written as SMILES.

For the first test, the target named is T1, factor B (Homo sapiens, UniProt P00751). Kind of test: assay of Biological Example 2.7. It is filed as binding. The settings on record: assay of Biological Example 2.7 (Table 2). Also noted: made in house; host or cells: drosophila cells.
Target sequence in this assay (P00751 26-764): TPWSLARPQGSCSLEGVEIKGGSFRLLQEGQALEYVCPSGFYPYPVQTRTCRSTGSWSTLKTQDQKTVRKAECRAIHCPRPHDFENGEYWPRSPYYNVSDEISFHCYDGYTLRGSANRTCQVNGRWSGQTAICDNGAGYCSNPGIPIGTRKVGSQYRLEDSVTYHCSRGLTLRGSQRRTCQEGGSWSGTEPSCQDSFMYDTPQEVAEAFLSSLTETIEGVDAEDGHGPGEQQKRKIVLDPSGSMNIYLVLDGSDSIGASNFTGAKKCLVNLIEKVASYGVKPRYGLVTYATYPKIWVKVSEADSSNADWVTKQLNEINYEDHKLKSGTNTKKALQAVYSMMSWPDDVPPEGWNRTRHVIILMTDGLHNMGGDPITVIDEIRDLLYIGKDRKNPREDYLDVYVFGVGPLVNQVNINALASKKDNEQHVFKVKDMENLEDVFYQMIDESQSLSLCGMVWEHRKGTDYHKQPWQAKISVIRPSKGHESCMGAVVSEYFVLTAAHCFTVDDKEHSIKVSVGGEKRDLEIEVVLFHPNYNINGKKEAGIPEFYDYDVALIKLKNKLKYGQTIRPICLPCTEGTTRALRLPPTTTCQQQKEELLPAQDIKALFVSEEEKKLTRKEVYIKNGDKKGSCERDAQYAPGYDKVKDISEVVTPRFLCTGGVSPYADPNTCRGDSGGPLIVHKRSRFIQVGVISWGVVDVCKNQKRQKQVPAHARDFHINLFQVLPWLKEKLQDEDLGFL
In turn, `COc1cc(C)c2[nH]ccc2c1C(N)(c1nc2cc(C#N)ccc2[nH]1)C(F)(F)F` (racemic) [36-E b) (−), (−)-2-(1-amino-2,2,2-trifluoro-1-(5-methoxy-7-methyl-1H-indol-4-yl)ethyl)-1H-benzo[d]imidazole-5-carbonitrile] yielded an IC50 of 30 nM.

`Cc1cc(Br)c(C(C)(N)c2nc3cc(C#N)ccc3[nH]2)c2cc[nH]c12` (single isomer, unassigned; (+)) [137-A b) (+), (+)-2-(1-amino-1-(5-bromo-7-methyl-1H-indol-4-yl)ethyl)-1H-benzo[d]imidazole-5-carbonitrile] returned an IC50 of 120 nM.

`[2H]C([2H])([2H])OC(C)(c1nc2cc(C#N)ccc2[nH]1)c1c(OC)cc(C)c2[nH]ccc12` (single isomer, unassigned; (+)) [137-I b) (+), (+)-2-(1-(^2H3)methoxy-1-(5-methoxy-7-methyl-1H-indol-4-yl)ethyl)-1H-benzo[d]imidazole-5-carbonitrile] returned an IC50 of 110 nM.

`[2H]C([2H])([2H])OC(c1nc2cc(C#N)ccc2[nH]1)(c1c(OC)cc(C)c2[nH]ccc12)C(F)(F)F` (single isomer, unassigned; (+)) [137-J b) (+), (+)-2-(2,2,2-trifluoro-1-(^2H3)-methoxy-1-(5-methoxy-7-methyl-1H-indol-4-yl)ethyl)-1H-benzo[d]imidazole-5-carbonitrile]: the IC50 came to 1300 nM.

As to `COc1cc(C)c2[nH]ccc2c1C(C)(OC)c1nc2cc(C#N)ccc2o1` (single isomer, unassigned; (+)) [137-K b) (+), (+)-2-(1-methoxy-1-(5-methoxy-7-methyl-1H-indol-4-yl)ethyl)benzo[d]oxazole-5-carbonitrile], it took 820 nM to reach half-maximal inhibition (IC50).

Compound `COC(C)(c1nc2cc(C#N)ccc2o1)c1c(C2CC2)cc(C)c2[nH]ccc12` (single isomer, unassigned; (+)) [137-L b) (+), (+)-2-(1-(5-cyclopropyl-7-methyl-1H-indol-4-yl)-1-methoxyethyl)benzo[d]oxazole-5-carbonitrile] returned an IC50 of 720 nM.

`COc1cc(C)c2[nH]ccc2c1C(C)(O)c1nc2cc(C#N)ccc2o1` (single isomer, unassigned; (+)) [137-N b) (+), (+)-2-(1-hydroxy-1-(5-methoxy-7-methyl-1H-indol-4-yl)ethyl)benzo[d]oxazole-5-carbonitrile] yielded an IC50 of 40 nM.

In turn, `COc1cc(C)c2[nH]cc3c2c1C(c1nc2cc(C#N)ccc2[nH]1)(C(F)(F)F)NC3` (single isomer, unassigned; (+)) [Example 36-F, (+)-2-(6-methoxy-8-methyl-5-(trifluoromethyl)-1,3,4,5-tetrahydropyrrolo[4,3,2-de]isoquinolin-5-yl)-1H-benzo[d]imidazole-5-carbonitrile] returned an IC50 of 12 nM.

The compound `COc1cc(C)c2[nH]ccc2c1C(CC(=O)O)c1nc2cc(C#N)ccc2o1` (single isomer, unassigned; (+)) [Example 148-D, (+)-3-(5-cyanobenzo[d]oxazol-2-yl)-3-(5-methoxy-7-methyl-1H-indol-4-yl)propanoic acid] showed an IC50 of 340 nM.

Consider `COc1cc(C)c2[nH]ccc2c1C(CCC(=O)O)c1nc2cc(C#N)ccc2o1` (single isomer, unassigned; (+)) [Example 149-C, (+)-4-(5-cyanobenzo[d]oxazol-2-yl)-4-(5-methoxy-7-methyl-1H-indol-4-yl)butanoic acid], for which it took 160 nM to reach half-maximal inhibition (IC50).

As to `Cc1cc(Br)c(C(C)(N)c2nc3cc(C#N)ccc3[nH]2)c2cc[nH]c12` (single isomer, unassigned; (-)) [137-A b) (−), (−)-2-(1-amino-1-(5-bromo-7-methyl-1H-indol-4-yl)ethyl)-1H-benzo[d]imidazole-5-carbonitrile], the IC50 is 20 nM.

Consider `[2H]C([2H])([2H])OC(C)(c1nc2cc(C#N)ccc2[nH]1)c1c(OC)cc(C)c2[nH]ccc12` (single isomer, unassigned; (-)) [137-I b) (−), (−)-2-(1-(^2H3)methoxy-1-(5-methoxy-7-methyl-1H-indol-4-yl)ethyl)-1H-benzo[d]imidazole-5-carbonitrile], for which the IC50 turned out to be 10 nM.

With `[2H]C([2H])([2H])OC(c1nc2cc(C#N)ccc2[nH]1)(c1c(OC)cc(C)c2[nH]ccc12)C(F)(F)F` (single isomer, unassigned; (-)) [137-J b) (−), (−)-2-(2,2,2-trifluoro-1-(^2H3)-methoxy-1-(5-methoxy-7-methyl-1H-indol-4-yl)ethyl)-1H-benzo[d]imidazole-5-carbonitrile], half-maximal inhibition (IC50) required 10 nM.

For the compound `COc1cc(C)c2[nH]ccc2c1C(C)(OC)c1nc2cc(C#N)ccc2o1` (single isomer, unassigned; (-)) [137-K b) (−), (−)-2-(1-methoxy-1-(5-methoxy-7-methyl-1H-indol-4-yl)ethyl)benzo[d]oxazole-5-carbonitrile], half-maximal inhibition (IC50) was put at 200 nM.

For `COC(C)(c1nc2cc(C#N)ccc2o1)c1c(C2CC2)cc(C)c2[nH]ccc12` (single isomer, unassigned; (-)) [137-L b) (−), (−)-2-(1-(5-cyclopropyl-7-methyl-1H-indol-4-yl)-1-methoxyethyl)benzo[d]oxazole-5-carbonitrile], the IC50 came to 270 nM.

On to `COc1cc(C)c2[nH]ccc2c1C(C)(O)c1nc2cc(C#N)ccc2o1` (single isomer, unassigned; (-)) [137-N b) (−), (−)-2-(1-hydroxy-1-(5-methoxy-7-methyl-1H-indol-4-yl)ethyl)benzo[d]oxazole-5-carbonitrile], for which inhibition was half-maximal at 6 nM (IC50).

The compound `COc1cc(C)c2[nH]ccc2c1C(CC(=O)O)c1nc2cc(C#N)ccc2o1` (single isomer, unassigned; (-)) [Example 148-E, (−)-3-(5-cyanobenzo[d]oxazol-2-yl)-3-(5-methoxy-7-methyl-1H-indol-4-yl)propanoic acid] had an IC50 of 420 nM.

Turning to `COc1cc(C)c2[nH]ccc2c1C(CCC(=O)O)c1nc2cc(C#N)ccc2o1` (single isomer, unassigned; (-)) [Example 149-D, (−)-4-(5-cyanobenzo[d]oxazol-2-yl)-4-(5-methoxy-7-methyl-1H-indol-4-yl)butanoic acid], 120 nM corresponded to half-maximal inhibition (IC50).

In turn, `COc1cc(C)c2[nH]ccc2c1C(c1nc2cc(C#N)ccc2[nH]1)C(C)C(=O)O` (single isomer, unassigned; diastereomer a) [Example 147-D, (±)-3-(5-Cyano-1H-benzo[d]imidazol-2-yl)-3-(5-methoxy-7-methyl-1H-indol-4-yl)-2-methylpropanoic acid (Diastereomer A)] gave an IC50 of 790 nM.

Compound `COc1cc(C)c2[nH]ccc2c1C(c1nc2cc(C#N)ccc2[nH]1)C(C)C(=O)O` (single isomer, unassigned; diastereomer b) [Example 147-E, (±)-3-(5-Cyano-1H-benzo[d]imidazol-2-yl)-3-(5-methoxy-7-methyl-1H-indol-4-yl)-2-methylpropanoic acid (Diastereomer B)] gave an IC50 of 160 nM.

In turn, `COc1cc(C)c2[nH]ccc2c1C(c1nc2cc(C#N)ccc2[nH]1)C(C)CO` (single isomer, unassigned; diastereomer b) [Example 147-F, (±)-2-(3-hydroxy-1-(5-methoxy-7-methyl-1H-indol-4-yl)-2-methylpropyl)-1H-benzo[d]imidazole-5-carbonitrile (Diastereomer B)] gave an IC50 of 100 nM.

`COc1cc(C)c2[nH]ccc2c1C(O)c1nc2cc(C#N)ccc2s1` (stereo not drawn) [Example 137-C] showed an IC50 of 62 nM.

`COc1cc(C)c2[nH]ccc2c1C(C)(N)c1nc2cc(C#N)ccc2s1` (stereo not drawn) [Example 137-D] yielded an IC50 of 170 nM.

The compound `COc1cc(C)c2[nH]ccc2c1C(N)c1nc2cc(C#N)ccc2s1` (stereo not drawn) [Example 137-E] gave an IC50 of 270 nM.

In turn, `COc1c(F)c(C)c2[nH]ccc2c1C(C)(N)c1nc2cc(C#N)ccc2[nH]1` (stereo not drawn) [Example 137-G] came in with an IC50 of 29 nM.

Regarding `COc1c(F)c(C)c2[nH]ccc2c1C(C)(OC)c1nc2cc(C#N)ccc2[nH]1` (stereo not drawn) [Example 137-H], half-maximal inhibition (IC50) was put at 31 nM.

As to `Cc1cc(C)c2[nH]ccc2c1C(O)c1nc2ccc(C#N)cc2s1` (stereo not drawn) [Example 137-O], it took 3160 nM to reach half-maximal inhibition (IC50).

`Cc1cc(C)c2[nH]ccc2c1C(O)c1cc2cc(C#N)ccc2[nH]1` (stereo not drawn) [Example 137-P] displayed an IC50 of 980 nM.

In turn, `Cc1cc(C)c2[nH]ccc2c1C(O)c1cc2cc(C#N)ccc2o1` (stereo not drawn) [Example 137-Q] gave an IC50 of 1350 nM.

In turn, `Cc1cc(C)c2[nH]ccc2c1C(O)c1nc2cc(C#N)ccc2s1` (stereo not drawn) [Example 137-R] showed an IC50 of 790 nM.

The compound `COc1cc(C)c2[nH]ccc2c1C(C)(O)c1nc2ccc(C#N)cc2s1` (stereo not drawn) [Example 137-S] had an IC50 of 110 nM.

`COc1cc(C)c2[nH]ccc2c1C(C)(O)c1cc2ccc(C#N)cc2[nH]1` (stereo not drawn) [Example 137-T]: the IC50 amounted to 50 nM.

Consider `COc1cc(C)c2[nH]ccc2c1C(C)(O)c1cc2cc(C#N)ccc2[nH]1` (stereo not drawn) [Example 137-U], for which the IC50 is 35 nM.

Compound `COc1cc(C)c2[nH]ccc2c1C(C)(O)c1cc2cc(C#N)ccc2o1` (stereo not drawn) [Example 137-V] returned an IC50 of 23 nM.

For the compound `COc1cc(C)c2[nH]ccc2c1C(C)(OC)c1nc2ccc(C#N)cc2s1` (stereo not drawn) [Example 137-W], the IC50 is 5220 nM.

The compound `COc1cc(C)c2[nH]ccc2c1C(C)(O)c1cc2ccc(C#N)cc2o1` (stereo not drawn) [Example 137-X] gave an IC50 of 190 nM.

Take `COc1cc(C)c2[nH]ccc2c1C(C)(OC)c1cc2ccc(C#N)cc2o1` (stereo not drawn) [Example 137-Y]: half-maximal inhibition (IC50) required 820 nM.

`COc1cc(C)c2[nH]ccc2c1C(C)(OC)c1cc2cc(C#N)ccc2o1` (stereo not drawn) [Example 137-Z] had an IC50 of 520 nM.

In another test the target is T1, factor B. The test can be described thus: factor B inhibition assay of Biological Example 1. Type of test: biochemical. Also noted: CVF-Bb complex prepared from purified cobra venom factor (1 μM), recombinant human complement factor B; made in house; host or cells: drosophila cells (factor B); E. coli (factor D used to form the complex). The settings on record: IC50 (nM), assay of Biological Example 1 (Table 1).
Target sequence in this assay (P00751 260-764 limits assumed): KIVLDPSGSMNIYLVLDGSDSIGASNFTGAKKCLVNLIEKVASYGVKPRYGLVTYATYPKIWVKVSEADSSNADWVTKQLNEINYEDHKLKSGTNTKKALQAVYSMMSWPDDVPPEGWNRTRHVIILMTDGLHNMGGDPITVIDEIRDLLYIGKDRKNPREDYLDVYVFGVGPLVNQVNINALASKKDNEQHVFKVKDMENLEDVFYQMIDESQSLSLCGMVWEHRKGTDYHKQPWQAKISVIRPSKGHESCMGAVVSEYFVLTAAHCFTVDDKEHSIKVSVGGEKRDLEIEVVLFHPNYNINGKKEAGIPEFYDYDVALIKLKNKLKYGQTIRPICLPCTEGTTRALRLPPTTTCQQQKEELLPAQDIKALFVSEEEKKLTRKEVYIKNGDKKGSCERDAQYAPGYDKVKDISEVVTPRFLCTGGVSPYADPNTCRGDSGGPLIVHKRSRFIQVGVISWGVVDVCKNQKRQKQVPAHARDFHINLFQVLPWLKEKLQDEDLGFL
Target sequence in this assay (Q91132 23-649 partner limits assumed): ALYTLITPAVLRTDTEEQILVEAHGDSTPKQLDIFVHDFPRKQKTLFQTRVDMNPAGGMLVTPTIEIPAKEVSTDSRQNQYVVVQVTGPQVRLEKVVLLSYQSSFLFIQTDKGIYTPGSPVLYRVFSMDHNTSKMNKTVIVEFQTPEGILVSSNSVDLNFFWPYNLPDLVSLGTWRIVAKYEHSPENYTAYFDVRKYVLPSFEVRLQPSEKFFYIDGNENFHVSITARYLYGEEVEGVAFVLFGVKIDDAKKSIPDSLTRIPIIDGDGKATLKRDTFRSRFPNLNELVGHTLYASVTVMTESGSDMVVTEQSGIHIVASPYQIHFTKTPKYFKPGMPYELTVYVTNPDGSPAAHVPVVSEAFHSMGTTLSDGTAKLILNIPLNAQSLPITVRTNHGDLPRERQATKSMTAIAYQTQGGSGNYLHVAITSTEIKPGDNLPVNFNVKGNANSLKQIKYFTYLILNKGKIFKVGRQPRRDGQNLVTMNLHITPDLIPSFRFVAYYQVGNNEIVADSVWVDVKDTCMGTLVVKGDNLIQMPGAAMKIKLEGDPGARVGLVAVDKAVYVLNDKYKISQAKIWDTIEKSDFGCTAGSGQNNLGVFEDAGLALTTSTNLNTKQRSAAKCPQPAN
Target sequence in this assay (Q91132 733-984 partner limits assumed): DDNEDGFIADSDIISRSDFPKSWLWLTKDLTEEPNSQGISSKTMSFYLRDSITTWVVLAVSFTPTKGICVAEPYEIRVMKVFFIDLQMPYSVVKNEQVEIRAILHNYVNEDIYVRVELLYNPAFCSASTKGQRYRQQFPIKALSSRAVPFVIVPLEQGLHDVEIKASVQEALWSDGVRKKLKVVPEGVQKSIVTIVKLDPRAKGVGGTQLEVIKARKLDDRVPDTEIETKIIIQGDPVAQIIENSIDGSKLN
Target sequence in this assay (Q91132 1264-1642 partner limits assumed): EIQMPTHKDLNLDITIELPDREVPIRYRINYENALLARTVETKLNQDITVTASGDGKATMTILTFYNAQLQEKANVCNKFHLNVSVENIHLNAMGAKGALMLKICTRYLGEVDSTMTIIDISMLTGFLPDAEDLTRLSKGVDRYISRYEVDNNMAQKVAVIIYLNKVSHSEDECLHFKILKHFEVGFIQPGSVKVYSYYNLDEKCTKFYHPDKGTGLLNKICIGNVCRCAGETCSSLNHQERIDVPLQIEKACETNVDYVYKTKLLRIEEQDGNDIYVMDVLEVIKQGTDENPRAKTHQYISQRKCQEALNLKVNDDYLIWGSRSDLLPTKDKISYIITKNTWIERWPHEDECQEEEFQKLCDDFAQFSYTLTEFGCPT
In the case of `COc1cc(C)c2[nH]ccc2c1C(N)(c1nc2cc(C#N)ccc2[nH]1)C(F)(F)F` (racemic) [36-E b) (−), (−)-2-(1-amino-2,2,2-trifluoro-1-(5-methoxy-7-methyl-1H-indol-4-yl)ethyl)-1H-benzo[d]imidazole-5-carbonitrile], the IC50 is 40 nM.
